# Reference: patent publication US9156822B2, “Functionally selective ligands of dopamine D2 receptors” (The University of North Carolina at Chapel Hill, priority 2010, dated 2015)
# Entries after “also recorded” stand apart in the source; their conditions may differ. Read-outs that look alike come from different tables or passages of the source.
# What was measured:
# [1] = tested on: wild-type and β-arrestin-2 knockout mice; settings: i.p., 5.0 mg/kg (haloperidol 2.0 mg/kg), 30 and 60 min
# [2] = target: T1, 5HT2B (Homo sapiens (Human), UniProt P41595); settings: read-out: 5HT2B/binding (Ki)
# [3] = target: T2, 5HT2C (Homo sapiens (Human), UniProt P28335); experiment: biochemical
# [4] = target: T3, 5HT1A (Homo sapiens (Human), UniProt P08908); experiment: 5HT1A binding
# [5] = tested on: C57BL/6 mice; settings: i.p., 3 mg/kg D-amphetamine
# [6] = target: T4, 5HT2A (Homo sapiens (Human), UniProt P28223); experiment: 5HT2A FLIPR (Ca2+ mobilization); type: cell-based
# [7] = target: T4, 5HT2A; settings: read-out: 5HT2A/binding (Ki)
# [8] = target: T4, 5HT2A; experiment: biochemical
# [9] = target: T2, 5HT2C; experiment: 5HT2C FLIPR (Ca2+ mobilization); type: cell-based
# [10] = target: T1, 5HT2B
# [11] = target: D5 dopamine receptor (Homo sapiens (Human), UniProt P21918); settings: read-out: D5/binding (Ki)
# [12] = tested on: wild-type and β-arrestin-2 knockout mice; settings: i.p., 6 mg/kg PCP
# [13] = mouse
# [14] = target: T5, D2 receptors (Homo sapiens (Human), UniProt P14416); experiment: CHO-D2 radioligand binding assay ([3H]N-methylspiperone competition)
# Target sequence in this assay (P14416 whole entry): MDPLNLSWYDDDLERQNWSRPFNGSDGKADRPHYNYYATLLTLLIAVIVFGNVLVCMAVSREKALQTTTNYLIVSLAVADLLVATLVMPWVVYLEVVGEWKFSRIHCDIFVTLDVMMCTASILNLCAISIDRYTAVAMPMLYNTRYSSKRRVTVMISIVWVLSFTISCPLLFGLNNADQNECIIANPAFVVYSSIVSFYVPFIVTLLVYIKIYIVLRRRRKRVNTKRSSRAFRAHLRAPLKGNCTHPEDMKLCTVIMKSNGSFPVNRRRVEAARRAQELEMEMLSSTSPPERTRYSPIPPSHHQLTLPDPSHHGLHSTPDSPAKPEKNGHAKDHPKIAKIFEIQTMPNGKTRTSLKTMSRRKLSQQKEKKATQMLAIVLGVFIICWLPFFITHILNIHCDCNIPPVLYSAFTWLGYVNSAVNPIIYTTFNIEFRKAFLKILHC
# [15] = target: hD2 receptors (Homo sapiens (Human), UniProt P14416); experiment: D2 mediated cAMP GloSensor assay; type: cell-based; settings: for Emax: read-out: cAMP (GloSensor) Emax; for cAMP (GloSensor) activity in words (merged EC50/Emax cell): key: neutral: Neutral ligands are either antagonists or are inactive
# [16] = target: D1 dopamine receptor (Homo sapiens (Human), UniProt P21728); settings: read-out: D1/binding (Ki)
# [17] = target: T2, 5HT2C; settings: read-out: 5HT2C/binding (Ki)
# [18] = target: D3-dopamine receptor (Homo sapiens (Human), UniProt P35462); settings: read-out: D3/binding (Ki)
# [19] = target: H1-histamine receptor (Homo sapiens (Human), UniProt P35367); experiment: H1 binding
# [20] = in vivo; settings: mouse
# [21] = target: T1, 5HT2B; experiment: biochemical
# [22] = target: hD2L dopamine receptor (Homo sapiens (Human), UniProt P14416); experiment: pERK high-content assay; type: cell-based; settings: for Emax: normalized to dopamine, read-out: p-ERK Emax
# Protocol: On day 1 of the assay, cells were seeded onto black clear-bottom tissue culture-treated 96-well plates (Greiner, BioOne). On day 2 of the assay, cells were washed with serum-free medium (Ham's F-12, penicillin and streptomycin) and incubated in 100 μL serum-free medium overnight.
# Immunofluorescence: Automatic multichannel pipetters were used for liquid handling and multichannel vacuum manifolds for aspirations. Each tested concentration was typically measured in triplicate or quadruplicate. For concentration curves, half-log-dilutions were used. Drug dilutions were prepared in stimulation medium (serum-free medium, 100 mg/L ascorbic acid). 100 μM dopamine and 1 μM PMA (phorbol 12-myristate 13-acetate) were used as positive controls. Medium only was used as a negative control. Specificity of the response was confirmed by pretreatment for 5 min with 10 μM of the antagonist spiperone and in experiments using wild type CHO cells.
# Cells were stimulated on day 3 by fast addition of 50 μL equilibrated 3× drug dilutions in a tissue culture incubator for 5 min. Plates were placed on ice, the medium was aspirated, and 100 μL/well of freshly prepared ice-cold fixing buffer (4% formaldehyde and 0.5 mM CaCl2 in PBS) solution was added. After 30 min fixing at room temperature, the plates were washed with 350 μL/well PBS/Ca (0.5 mM CaCl2 in PBS) and permeabilized for 20 min in 100 μL/well 0.3% Triton X-100 in PBS/Ca. […] Plates were washed three times with 250 μL/well washing buffer, post-fixed for 10 min in fixing buffer, washed with 250 μl PBS/Ca, filled with 200 μL/well PBS/Ca, sealed with transparent adhesive plate seals, and stored at 4° C.
# The Alexa594 light path was used for the target signal, Alexa488 for whole cell staining, and Hoechst for the nuclear staining. Images were analyzed using the CellProfiler software. […] Concentration curves were analyzed in GraphPad Prism by fitting against a sigmoidal dose-response model and normalization to the dopamine curve.
# [23] = target: D4 dopamine receptor (Homo sapiens (Human), UniProt P21917); settings: read-out: D4/binding (Ki)
# [24] = target: T5, D2 receptors; experiment: D2 β-arrestin recruitment (Tango) assay; type: cell-based
# Protocol: The next day, cells were plated in white, clear-bottom, 384-well plates (Greiner, 10,000 cells/well, 50 μl/well) in DMEM containing 1% dialyzed fetal bovine serum. […] Data were normalized to vehicle (0%) and quinpirole (100%) controls and regressed using the sigmoidal dose-response function built into GraphPad Prism 4.0.
# Target sequence in this assay (P14416 whole entry, looked up): as the sequence (P14416 whole entry) above
# [25] = target: T1, 5HT2B; experiment: cell-based
# [26] = target: T3, 5HT1A; experiment: 5HT1A cAMP biosensor; type: cell-based
# [27] = HTLA cells, read-out: β-arrestin (Tango) EC50
# [28] = normalized to quinpirole (100%)
# [29] = CHO-D2 membranes, [3H]N-methylspiperone, read-out: D2 Binding Ki ± SEM
# [30] = HEK293T, isoproterenol-stimulated cAMP
# [31] = normalized to quinpirole, negative = inverse agonist
# T1 sequence (P41595 whole entry, species assumed): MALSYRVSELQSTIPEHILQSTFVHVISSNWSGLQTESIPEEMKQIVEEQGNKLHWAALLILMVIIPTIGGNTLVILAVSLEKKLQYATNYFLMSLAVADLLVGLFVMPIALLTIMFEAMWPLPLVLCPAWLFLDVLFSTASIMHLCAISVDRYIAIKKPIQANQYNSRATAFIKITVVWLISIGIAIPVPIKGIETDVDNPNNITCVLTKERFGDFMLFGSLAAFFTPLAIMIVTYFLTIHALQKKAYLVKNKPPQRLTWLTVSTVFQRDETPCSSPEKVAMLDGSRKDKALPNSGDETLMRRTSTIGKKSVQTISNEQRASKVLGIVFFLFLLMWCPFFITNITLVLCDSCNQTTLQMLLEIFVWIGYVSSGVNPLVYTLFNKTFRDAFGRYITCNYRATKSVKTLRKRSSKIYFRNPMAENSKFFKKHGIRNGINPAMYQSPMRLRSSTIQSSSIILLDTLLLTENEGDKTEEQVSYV
# hD2L dopamine receptor, sequence (P14416 whole entry): as the sequence (P14416 whole entry) above
# hD2 receptors, sequence (P14416 whole entry): as above
# T2 sequence (P28335 33-458, species assumed): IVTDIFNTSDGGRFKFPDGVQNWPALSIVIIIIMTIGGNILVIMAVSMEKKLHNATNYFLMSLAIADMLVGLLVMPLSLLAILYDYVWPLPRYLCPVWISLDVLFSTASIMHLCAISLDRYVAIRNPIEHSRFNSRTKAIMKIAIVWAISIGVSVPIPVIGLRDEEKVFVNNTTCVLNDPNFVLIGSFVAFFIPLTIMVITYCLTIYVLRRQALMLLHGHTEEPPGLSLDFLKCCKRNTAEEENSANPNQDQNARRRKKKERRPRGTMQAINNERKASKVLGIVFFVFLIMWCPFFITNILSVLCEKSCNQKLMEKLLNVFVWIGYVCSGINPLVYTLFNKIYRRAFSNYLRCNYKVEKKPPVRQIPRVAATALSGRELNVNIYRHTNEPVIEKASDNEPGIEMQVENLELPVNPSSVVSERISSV
# H1-histamine receptor, sequence (P35367 whole entry): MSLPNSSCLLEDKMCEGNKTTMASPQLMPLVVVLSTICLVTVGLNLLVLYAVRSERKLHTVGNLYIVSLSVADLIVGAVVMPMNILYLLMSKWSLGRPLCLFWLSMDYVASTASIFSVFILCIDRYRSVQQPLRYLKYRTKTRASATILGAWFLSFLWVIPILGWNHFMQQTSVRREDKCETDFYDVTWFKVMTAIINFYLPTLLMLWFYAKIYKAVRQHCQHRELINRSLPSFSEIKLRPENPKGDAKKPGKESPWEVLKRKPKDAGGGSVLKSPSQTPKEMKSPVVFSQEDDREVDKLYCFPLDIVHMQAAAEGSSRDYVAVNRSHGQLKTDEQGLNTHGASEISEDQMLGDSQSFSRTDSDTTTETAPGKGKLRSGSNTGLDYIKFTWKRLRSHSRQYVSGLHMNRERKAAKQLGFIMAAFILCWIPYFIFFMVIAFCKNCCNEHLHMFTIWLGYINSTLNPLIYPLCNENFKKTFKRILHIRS
# D4 dopamine receptor, sequence (P21917 whole entry): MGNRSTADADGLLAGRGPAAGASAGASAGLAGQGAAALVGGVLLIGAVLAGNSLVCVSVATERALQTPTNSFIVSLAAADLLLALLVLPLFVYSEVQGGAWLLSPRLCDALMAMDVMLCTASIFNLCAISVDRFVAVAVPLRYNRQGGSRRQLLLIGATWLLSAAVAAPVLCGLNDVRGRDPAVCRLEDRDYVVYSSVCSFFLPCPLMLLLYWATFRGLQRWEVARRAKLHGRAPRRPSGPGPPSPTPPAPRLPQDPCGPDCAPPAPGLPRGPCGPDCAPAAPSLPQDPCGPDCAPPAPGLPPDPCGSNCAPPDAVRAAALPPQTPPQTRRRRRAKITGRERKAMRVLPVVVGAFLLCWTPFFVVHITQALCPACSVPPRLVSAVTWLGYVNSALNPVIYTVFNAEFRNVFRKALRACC
# D1 dopamine receptor, sequence (P21728 whole entry): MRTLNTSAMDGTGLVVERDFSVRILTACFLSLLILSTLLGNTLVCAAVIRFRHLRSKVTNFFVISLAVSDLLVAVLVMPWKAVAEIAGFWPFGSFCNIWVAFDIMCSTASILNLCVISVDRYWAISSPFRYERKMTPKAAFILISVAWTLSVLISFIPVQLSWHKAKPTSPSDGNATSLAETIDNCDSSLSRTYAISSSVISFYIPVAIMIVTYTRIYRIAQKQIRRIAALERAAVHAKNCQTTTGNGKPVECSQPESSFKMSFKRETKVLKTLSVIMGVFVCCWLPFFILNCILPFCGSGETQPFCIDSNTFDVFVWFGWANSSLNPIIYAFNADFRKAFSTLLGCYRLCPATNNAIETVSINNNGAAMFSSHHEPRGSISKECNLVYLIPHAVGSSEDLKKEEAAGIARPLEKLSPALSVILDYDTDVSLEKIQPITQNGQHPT
# D3-dopamine receptor, sequence (P35462 whole entry): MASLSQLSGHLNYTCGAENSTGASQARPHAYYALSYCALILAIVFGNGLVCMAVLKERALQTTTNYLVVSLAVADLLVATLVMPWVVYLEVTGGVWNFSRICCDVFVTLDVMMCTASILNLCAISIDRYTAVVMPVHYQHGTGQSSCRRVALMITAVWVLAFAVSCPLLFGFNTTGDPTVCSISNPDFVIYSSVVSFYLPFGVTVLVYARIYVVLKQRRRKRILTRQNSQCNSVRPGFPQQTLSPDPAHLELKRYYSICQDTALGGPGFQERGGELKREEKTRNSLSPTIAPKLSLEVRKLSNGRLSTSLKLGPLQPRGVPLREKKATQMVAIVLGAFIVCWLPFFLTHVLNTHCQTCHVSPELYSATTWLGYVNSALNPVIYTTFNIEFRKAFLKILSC
# D5 dopamine receptor, sequence (P21918 whole entry): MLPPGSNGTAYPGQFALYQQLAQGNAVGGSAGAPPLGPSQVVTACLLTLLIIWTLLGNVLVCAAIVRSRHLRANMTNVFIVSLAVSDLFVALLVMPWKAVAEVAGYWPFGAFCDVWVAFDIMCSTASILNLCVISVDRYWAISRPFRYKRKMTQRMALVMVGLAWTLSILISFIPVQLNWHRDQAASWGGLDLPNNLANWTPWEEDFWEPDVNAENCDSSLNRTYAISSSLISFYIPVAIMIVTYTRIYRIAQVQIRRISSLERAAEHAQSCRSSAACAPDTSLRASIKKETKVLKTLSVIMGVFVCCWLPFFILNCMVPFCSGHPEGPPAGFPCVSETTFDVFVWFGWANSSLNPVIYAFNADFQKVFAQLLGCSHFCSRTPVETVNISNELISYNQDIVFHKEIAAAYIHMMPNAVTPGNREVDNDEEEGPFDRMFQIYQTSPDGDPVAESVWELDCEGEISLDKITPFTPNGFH
smiles,measurement,setting,value
"O=C1CCc2ccc(OCCCCN3CCCN(c4cccc(Cl)c4Cl)CC3)nc2N1 [Compound 3, 7-(4-(4-(2,3-dichlorophenyl)-1,4-diazepan-1-yl)butoxy)-3,4-dihydro-1,8-naphthyridin-2(1H)-one]","catalepsy (latency to move, inclined screen test)","[1]; wild-type mice, listed as UNC9975",do not induce catalepsy
same,"catalepsy (latency to move, inclined screen test)","[1]; β-arrestin-2 knockout mice, listed as UNC9975",induced catalepsy; also recorded: inducing catalepsy
same,Ki,[2],1.1 nM
same,Ki,[3],0.6 to 250 nM
same,Ki,[4]; read-out: 5HT1A/binding (Ki),29 nM
same,antipsychotic-like activity in D-amphetamine-induced hyperlocomotion,[5],potent antipsychotic-like activity
same,IC50,[6],660 nM
same,functional mode at 5HT2A,[6],antagonists
same,Ki,[7],7.4 nM
same,Ki,[8],0.6 to 250 nM
same,functional mode at 5HT2C,[9],antagonists
same,IC50,[9]; read-out: 5HT2C/FLIPR (IC50),2200 nM
same,functional mode at 5HT2B,[10],antagonists
same,Ki,[11],513 nM
same,antipsychotic-like activity in PCP-induced hyperlocomotion,[12]; wild-type mice,potent antipsychotic-like activity
same,antipsychotic-like activity in PCP-induced hyperlocomotion,[12]; β-arrestin-2 knockout mice,attenuated
same,"brain exposure level, fold lower compared to aripiprazole",[13],about 3 fold
same,Brain/Plasma Ratio,[13]; 0.08 h,0.57 mL/g
same,Brain/Plasma Ratio,[13]; 0.5 h,1.12 mL/g
same,Brain/Plasma Ratio,[13]; 1 h,1.29 mL/g
same,Brain/Plasma Ratio,[13]; 2 h,3.67 mL/g
same,Brain/Plasma Ratio,[13]; 4 h,12.26 mL/g
same,Brain/Plasma Ratio,[13]; […],0.80 mL/g
same,Ki,"[14]; Table 7, read-out: D2/binding (Ki)",< 10 nM
same,Ki,[14]; read-out: D2/binding (Ki),2.6 nM
same,Ki,[14]; read-out: D2 Binding Ki ± SEM,1.2 ± 0.1 nM
same,EC50,[15],13 nM
same,Emax,[15],-94%
same,Ki,[16],1040 nM
same,Ki,[17],99 nM
same,Ki,[18],11 nM
same,Ki,[19],6.1 nM
same,AUC(0-inf),[20]; brain,329 ng·h/mL
same,AUC(0-t),[20]; brain,267 ng·h/mL
same,Cmax,[20]; brain,49.8 ng/mL
same,Tmax,[20]; brain,15 min
same,concentration at 0.08 h,[20]; brain,37.8 ng/g
same,concentration at 0.5 h,[20]; brain,27.2 ng/g
same,concentration at 1 h,[20]; brain,31.2 ng/g
same,concentration at 2 h,[20]; brain,23 ng/g
same,concentration at 4 h,[20]; brain,16.9 ng/g
same,concentration at 8 h,[20]; brain,9.9 ng/g
same,concentration at 24 h,[20]; brain,4.2 ng/g
same,half-life,[20]; brain,636 min
same,AUC(0-inf),[20]; plasma,61.5 ng·h/mL
same,AUC(0-t),[20]; plasma,59.9 ng·h/mL
same,Cmax,[20]; plasma,70.6 ng/mL
same,Tmax,[20]; plasma,4.8 min
same,concentration at 0.08 h,[20]; plasma,70.6 ng/mL
same,concentration at 0.5 h,[20]; plasma,23.7 ng/mL
same,concentration at 1 h,[20]; plasma,24.6 ng/mL
same,concentration at 2 h,[20]; plasma,6.3 ng/mL
same,concentration at 4 h,[20]; plasma,1.4 ng/mL
same,concentration at 8 h,[20]; plasma,0 ng/mL
same,concentration at 24 h,[20]; plasma,0 ng/mL
same,half-life,[20]; plasma,48.6 min
same,Ki,[21],0.6 to 250 nM
same,Emax,[22],< 5%
same,Ki,[23],178 nM
same,β-arrestin (Tango) % activ at 1 μM,[24],11%
same,EC50,[24]; [27],3.3 nM
same,Emax,[24]; [28],44%
same,IC50,[25],76 nM
same,EC50,[26]; read-out: 5HT1A/cAMP (EC50),1800 nM
same,EC50,"[26]; text bound, read-out: 5HT1A EC50 (weak agonists)",> 1000 nM
"Clc1cccc(C2CCN(CCCOc3ccc4scnc4c3)CC2)c1Cl [Compound 22, 5-(3-(4-(2,3-dichlorophenyl)piperidin-1-yl)propoxy)benzo[d]thiazole]",Ki,[14]; [29],75 ± 12 nM
same,cAMP (GloSensor) activity in words (merged EC50/Emax cell),[15],neutral
same,EC50,"[22]; CHO-hD2L cells, read-out: p-ERK EC50",58 nM
same,Emax,[22],50%
same,EC50,[24],51 nM
same,β-arrestin (Tango) % activ at 1 μM,[24],59%
same,β-arrestin (Tango) Emax,[24]; [28],100%
"Clc1cccc(N2CCN(CCCOc3ccc4cn[nH]c4c3)CC2)c1Cl [Compound 20, 6-(3-(4-(2,3-dichlorophenyl)piperazin-1-yl)propoxy)-1H-indazole]",Ki,[14]; [29],104 ± 13 nM
same,EC50,[15]; [30],9.7 nM
same,Emax,[15]; [31],-22%
same,melting point,,159 to 161 °C
same,β-arrestin (Tango) % activ at 1 μM,[24],45%
same,EC50,[24]; [27],59 nM
same,Emax,[24]; [28],90%
"Clc1cccc(N2CCN(CCCCOc3ccc4scnc4c3)CC2)c1Cl [Compound 36, 5-(4-(4-(2,3-dichlorophenyl)piperazin-1-yl)butoxy)benzo[d]thiazole]",Ki,[14]; [29],17 ± 3 nM
same,cAMP (GloSensor) activity in words (merged EC50/Emax cell),[15],neutral
same,melting point,,93 to 94.5 °C
same,EC50,[24],59 nM
same,β-arrestin (Tango) % activ at 1 μM,[24],13%
same,Emax,[24]; [28],64%
"O=c1ccc2ccc(OCCCN3CCCN(c4cccc(Cl)c4Cl)CC3)cc2[nH]1 [Compound 15, 7-(3-(4-(2,3-dichlorophenyl)-1,4-diazepan-1-yl)propoxy)quinolin-2(1H)-one]",Ki,[14]; [29],3.4 ± 0.2 nM
same,EC50,[15]; [30],13 nM
same,Emax,[15]; [31],64%
same,melting point,,117 to 118 °C
same,EC50,[24]; [27],2.2 nM
same,Emax,[24]; [28],84%
"O=C1NCCc2ccc(OCCCN3CCCN(c4cccc(Cl)c4Cl)CC3)cc21 [Compound 5, 7-(3-(4-(2,3-dichlorophenyl)-1,4-diazepan-1-yl)propoxy)-3,4-dihydroisoquinolin-1(2H)-one]",Ki,[14]; [29],5.7 ± 0.8 nM
same,EC50,[15]; [30],5.6 nM
same,Emax,[15]; [31],-16%
same,melting point,,116 to 117 °C
same,β-arrestin (Tango) % activ at 1 μM,[24],13%
same,EC50,[24]; [27],8 nM
same,Emax,[24]; [28],47%
"O=C1NCCc2ccc(OCCCCN3CCC(c4cccc(Cl)c4Cl)CC3)cc21 [Compound 33, 7-(4-(4-(2,3-dichlorophenyl)piperidin-1-yl)butoxy)-3,4-dihydroisoquinolin-1(2H)-one]",Ki,[14]; [29],20 ± 3 nM
same,cAMP (GloSensor) activity in words (merged EC50/Emax cell),[15],neutral
same,melting point,,113 to 114 °C
same,EC50,[24],24 nM
same,β-arrestin (Tango) % activ at 1 μM,[24],26%
same,Emax,[24]; [28],64%
"O=C(CCCN1CCC(O)(c2ccc(Cl)cc2)CC1)c1ccc(F)cc1 [haloperidol, reference compound]","catalepsy (latency to move, inclined screen test)",[1]; β-arrestin-2 knockout mice,inducing catalepsy
"Clc1cccc(C2CCN(CCCCOc3ccc4scnc4c3)CC2)c1Cl [Compound 21, 5-(4-(4-(2,3-dichlorophenyl)piperidin-1-yl)butoxy)benzo[d]thiazole]",Ki,[14]; read-out: D2 Binding Ki ± SEM,42 ± 4 nM
same,EC50,[15],21 nM
same,Emax,[15],-27%
same,melting point,,79 to 81 °C
same,β-arrestin (Tango) % activ at 1 μM,[24],26%
same,EC50,[24]; [27],82 nM
same,Emax,[24]; [28],81%
"O=C1CCc2ccc(OCCCCN3CCCN(c4cccc(Cl)c4Cl)CC3)cc2N1 [Compound 2, 7-(4-(4-(2,3-dichlorophenyl)-1,4-diazepan-1-yl)butoxy)-3,4-dihydroquinolin-2(1H)-one]","catalepsy (latency to move, inclined screen test)","[1]; wild-type mice, listed as UNC0006",do not induce catalepsy
same,"catalepsy (latency to move, inclined screen test)","[1]; β-arrestin-2 knockout mice, listed as UNC0006",induced catalepsy; also recorded: inducing catalepsy
same,Ki,[2],0.6 nM
same,Ki,[3],0.6 to 250 nM
same,Ki,[4],0.6 to 250 nM
same,Ki,[4]; read-out: 5HT1A/binding (Ki),60 nM
same,functional mode at 5HT2A,[6],antagonists
same,IC50,[9],3600 nM
same,functional mode at 5HT2C,[9],antagonists
same,functional mode at 5HT2B,[10],antagonists
same,Ki,[17],115 nM
same,Ki,[19],4.5 nM
same,Ki,[21],0.6 to 250 nM
same,IC50,[25],115 nM
same,EC50,[26],> 1000 nM
same,EC50,[26]; read-out: 5HT1A/cAMP (EC50),2500 nM
